Experimental data as given in patent US20230277550A1, “Methods for Treating Respiratory Diseases Characterized by Mucus Hypersecretion” (The Board of Trustees of the Leland Stanford Junior …, priority 2020, published 2023).

Tests used:
[1] = test system: primary human nasal epithelial cells (HNECs); assay: Semagacestat dose response on multiciliated cell (MCC) formation in HNEC ALI cultures; type: cell-based; conditions: 1 µM DAPT; p <0.01 by ANOVA with Dunnett's test
Description: Air-Liquid Interface (ALI) cultures were prepared as described in Vladar EK, Nayak JV, Milla CE, Axelrod JD. Airway epithelial homeostasis and planar cell polarity signaling depend on multiciliated cell differentiation. JCI Insight. 2016;1(13);e88027. Human nasal epithelial cells (HNECs) were generated from human sinonasal epithelial brushings or from tissue obtained from patients undergoing endoscopic sinus surgery at Stanford Hospital and cultured as described in Vladar et al.
Cultures were treated with varying doses of semagacestat. DAPT (Abcam) was used ([…]) as a positive control for GSI activity. Cultures were labeled at ALI+21d with anti-acetylated α-tubulin (green) and ECAD (red) antibodies to mark cilia and epithelial junctions.
The ratio was defined as MCC number/total luminal cells. Counting was done on one representative image from 5 culture replicates from a single donor.

[2] = test system: Primary human airway epithelial cells; assay: MCC formation by timing of GSI treatment (proliferation, differentiation, continuous); type: cell-based
Description: Primary human airway epithelial cells were treated with DAPT and LY45139: i) during proliferation only (ALI-5 to -1d), ii) during differentiation only (ALI+0 to +21d) or iii) continuously during the entire culture duration, followed by labeling at ALI+21d with anti-acetylated α-Tubulin (green) and ECAD (red) antibodies.

[3] = test system: Mature (ALI+30d) primary human airway epithelial cells; assay: GSI treatment of mature (ALI+30d) cultures; type: cell-based; conditions: mature cultures treated one (ALI+30 to +37d) or two weeks (ALI+30 to +44d)
Description: Mature (ALI+30d) primary human airway epithelial cells were treated with DAPT and semagacestat for one (ALI+30 to +37d) or two weeks (ALI+30 to +44d), then labeled with anti-acetylated α-Tubulin (green) and ECAD (red) antibodies.

[4] = test system: Primary human airway epithelial cells; assay: GSI treatment from the apical or basal surface; type: cell-based; conditions: ALI+0 to +21d, apical or basal application
Description: Primary human airway epithelial cells were treated with DAPT and LY45139 during differentiation only (ALI+0 to +21d) from either the apical or basal surface, then labeled at ALI+21d with anti-acetylated α-Tubulin (green) and ECAD (red) antibodies. […] Apical treatment eliminates the air-liquid interface, which results in the poor epithelial structure and multiciliated cell differentiation in the untreated cultures, which is partially rescued by GSI treatment.

[5] = test system: HNEC cultures from a CF patient; assay: IL-13 induced chronic inflammation model in ALI HNEC cultures; type: cell-based, human; conditions: DAPT 1 um, semagacestat 125 nm, days 14-21
Description: Administration of IL-13 to ALI cultures induces goblet cell hyperplasia and is a useful model of chronic inflammation. ALI HNEC cultures were prepared as described in Vladar et al. ALI cultures were treated with and without administration of Il-13 on days 7-14. DAPT (1 um), semagacestat (125 nm) or vehicle control were administered on days 14-21. PFA-fixed cultures were stained for Muc5AC (red; mucin producing secretory cells), Acetylated tubulin (green; MCCs) and E-Cadherin (blue to reveal cell boundaries).
HNEC cultures from a CF patient were treated with IL-13 from ALI+7 to 14 to induce inflammation. […] IL-13 treatment increases the percentage of mucin positive secretory cells and decreases the percentage of MCCs.

[6] = test system: healthy and CF primary human airway epithelial cultures; assay: SEM of cilia in healthy and CF cultures; type: cell-based; conditions: healthy and CF cultures under DAPT vs untreated healthy cultures
[7] = test system: Mature (ALI+30d) primary cystic fibrosis human airway epithelial cells; assay: DAPT treatment of mature cystic fibrosis cultures; type: cell-based; conditions: mature CF cultures, one week (ALI+30 to +37d)
Description: Mature (ALI+30d) primary cystic fibrosis human airway epithelial cells were treated with DAPT for one week (ALI+30 to +37d), then labeled with anti-acetylated α-Tubulin (green) and ECAD (red) antibodies.

[8] = test system: primary human epithelial cells; assay: Ciliary beat frequency and cilium length with DAPT; type: cell-based; conditions: cells differentiated in the presence of DAPT vs untreated
[9] = test system: Primary human airway epithelial cells; assay: MCC formation with a variety of GSIs at high and low concentrations; type: cell-based; conditions: for epithelial structure: high concentrations; for epithelial structure / multiciliated cell formation: ALI+0 to +21d; for multiciliated cell formation: low concentration; for Notch signaling and differentiation towards MCCs: nanomolar range, human nasal epithelial cells
CFTR = CFTR current in Ussing chambers, GSI with or without ETI; type: cell-based, human
Description: Cells grown at an air liquid interface were mounted on a holding slider and inserted on an Ussing chamber for electrophysiological short circuit current (Isc) measurements. Solutions in the serosal and mucosal bath were prepared so that a chloride gradient was established between both sides. After stable baseline current recordings were obtained, agonists were added in the following order: amiloride (10 µM) to block sodium channel activity, forskolin (10 µM) to stimulate CFTR, Ivacaftor (10 µM) to potentiate CFTR activity, and CFTRinh-172 (20 µM) to block CFTR current. For each agonist signals were monitored until a plateau in current was noted before adding the next agonist. The delta-Isc in response to CFTRinh-172 was used as our main read out for CFTR-mediated chloride transport.
We directly measured CFTR activity in cultures from CF patients treated with GSI with or without well-established effective in vitro doses of Trikafta (Elexcaftor/Tezacaftor/Ivacaftor or “ETI”). Veit, G., et al., JCI (2020) 10.1172/jci.insight.139983. Measurements were performed in Ussing chambers. […] In some individual experiments, there appeared to be a synergistic effect in the combination treatment: GSI alone has no effect but the combination treatment produced a greater response than ETI alone. This effect was not consistently seen, but raised the possibility that synergy might be observed with lower ETI doses.
To examine this further, we tested MK04752 in combination with varying doses of ETI (FIG. 28).

[10] = test system: Primary nasal epithelial cells from two CF donors (F508del homozygotes); assay: Ciliary beat frequency (CBF) in CF donor cultures, MK-0752 and Elexacaftor; type: cell-based, human; conditions: MK-0752 125 nM or triple modulator with Elexacaftor 100 nM; p < 0.001
[11] = cited from earlier work

C[C@H](NC(=O)Cc1cc(F)cc(F)c1)C(=O)NC(C(=O)OC(C)(C)C)c1ccccc1 (some centres unmarked) [DAPT]
ratio MCC number/total luminal cells [1]: significant increases
MCC cell numbers ([2]; treatment during differentiation (differentiation only ALI+0 to +21d, and continuous)): increased MCC cell numbers
effect on differentiation ([2]; treatment during proliferation only (ALI-5 to -1d)): had no effect on differentiation
formation of additional multiciliated cells [3]: induces the formation of additional multiciliated cells
ciliated cell formation [4]: induces ciliated cell formation via both apical and basal application
percentage of MCCs ([5]; after IL-13 (ALI+7 to 14)): increasing the percentage of MCCs
percentage of mucin positive secretory cells ([5]; after IL-13 (ALI+7 to 14)): decreasing the percentage of mucin positive secretory cells
percentage of MCCs ([5]; controls without IL-13): increase the percentage off MCCs
structure of multiciliated cells by SEM [6]: indistinguishable from those in untreated healthy cultures
formation of additional multiciliated cells [7]: induces the formation of additional multiciliated cells in mature cystic fibrosis cultures
ciliary beat frequency [8]: modest, but significant increase
cilium length [8]: no difference

O=C(O)CC[C@H]1CC[C@@](c2cc(F)ccc2F)(S(=O)(=O)c2ccc(Cl)cc2)CC1 [MK-0752]
epithelial structure [9]: disrupted epithelial structure
multiciliated cell formation [9]: induced multiciliated cell formation
Notch signaling and differentiation towards MCCs [9]: effective in blocking Notch signaling, driving differentiation towards MCCs
CFTR current with suboptimal doses of ETI (CFTR; MK04752 with varying (reduced Elexacaftor) doses of ETI): suboptimal doses of ETI appear to be potentiated by MK04752
CFTR current induced by ETI (CFTR; cultures from CF patients, GSI plus ETI): Neither LY45139 (FIG. 26) nor MK04752 (FIG. 27) impaired the CFTR current
ciliary beat frequency (CBF) vs control [10]: significant effect in increasing the CBF
most common drug-related toxicities ([11]; 450 to 4,200 mg, three schedules): diarrhea, nausea, vomiting, and fatigue
tolerability ([11]; weekly dosing): generally well-tolerated

CC(C)(C(=O)NCC(F)(F)C(F)(F)F)C(=O)N[C@@H]1C(=O)Nc2ccccc2-c2ccccc21 [RO-4929097]
epithelial structure [9]: disrupted epithelial structure
multiciliated cell formation [9]: induced multiciliated cell formation
Notch signaling and differentiation towards MCCs [9]: effective in blocking Notch signaling, driving differentiation towards MCCs

CCC[C@H](N[C@H]1CCc2cc(F)cc(F)c2C1)C(=O)Nc1cn(C(C)(C)CNCC(C)(C)C)cn1 [nirogacestat, (S)-2-((S)-5,7-difluoro-1,2,3,4-tetrahydronaphthalen-3-ylamino)-N-(1-(2-m-ethyl-1-(neopentylamino)propan-2-yl)-1H-imidazol-4-yl)pentanamide]
epithelial structure [9]: disrupted epithelial structure
multiciliated cell formation [9]: induced multiciliated cell formation
Notch signaling and differentiation towards MCCs [9]: effective in blocking Notch signaling, driving differentiation towards MCCs
